From patent US20210269434A1, “TRICYCLIC COMPOUNDS AS INHIBITORS OF KRAS” (Incyte Corporation, priority 2020, published 2021)

Legend:
KRAS G12C = KRAS G12C (Homo sapiens, UniProt P01116, G12C); assay: GDP-GTP exchange assay (KRAS_G12C exchange); assay type: biochemical; conditions: bodipy-GDP loaded KRAS G12C 2.5 nM, SOS1 150 nM, GppNHp; 2 hours pre-incubation, 2 hours reaction; read-out: G12C_exchange
How it was run: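 Fluorescence exchange of bodipy-GDP for GppNHp, SOS1-driven, read at 485/520 nm; IC50 from four-parameter variable-slope fit. Both mutants used 2.5 nM final labelled protein and a 2 h compound pre-incubation. G12C reaction had 500 uM GppNHp and 150 nM SOS1 for 2 h; G12D ran 4 h.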

[1] = tested on: MIA PaCa-2 (KRAS G12C) cells; assay: Cellular pERK HTRF assay (KRAS_G12C pERK); assay type: cell-based, human; conditions: Homo sapiens, MIA PaCa-2, 4 hours incubation, read-out: G12C_pERK
How it was run: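 Phospho-ERK1/2 HTRF readout (665 and 620 nm) in lysed MIA PaCa-2 cells, antibodies incubated overnight at room temperature. Cells seeded the day before and treated with G12C compounds for 4 h at 37 °C; IC50 fitted to percent inhibition against log inhibitor concentration.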

Chain of KRAS G12C (P01116 1-188 isoform P01116-2 G12C): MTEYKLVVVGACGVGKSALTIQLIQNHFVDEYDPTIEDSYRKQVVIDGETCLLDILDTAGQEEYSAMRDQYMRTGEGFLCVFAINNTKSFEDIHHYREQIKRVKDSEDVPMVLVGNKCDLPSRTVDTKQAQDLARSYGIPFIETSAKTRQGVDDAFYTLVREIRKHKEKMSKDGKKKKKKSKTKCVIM

IC50 (KRAS G12C) | IC50 [1] | Structure (SMILES)
≤ 100 nM | ≤ 100 nM | C=CC(=O)N1CC[C@H](n2cnc3c(N4CC(N(C)C)C4)nc4c(F)c(-c5cccc(C)c5C)c(Cl)cc4c32)C[C@H]1CC#N [Example 16, 2-((2S,4S)-1-acryloyl-4-(8-chloro-4-(3-(dimethylamino)azetidin-1-yl)-7-(2,3-dimethylphenyl)-6-fluoro-1H-imidazo[4,5-c]quinolin-1-yl)piperidin-2-yl)acetonitrile]
≤ 100 nM | ≤ 100 nM | C=CC(=O)N1CC[C@H](n2cnc3c(N4CC(N(C)C)C4)nc4c(F)c(-c5cccc(C#N)c5C)c(Cl)cc4c32)C[C@H]1CC#N [Example 17, 3-(1-((2S,4S)-1-acryloyl-2-(cyanomethyl)piperidin-4-yl)-8-chloro-4-(3-(dimethylamino)azetidin-1-yl)-6-fluoro-1H-imidazo[4,5-c]quinolin-7-yl)-2-methylbenzonitrile]
≤ 100 nM | ≤ 100 nM | C=CC(=O)N1CC[C@H](n2cnc3c(N4CC(N(C)C)C4)nc4c(F)c(-c5cccc(F)c5C)c(Cl)cc4c32)C[C@H]1CC#N [Example 18, 2-((2S,4S)-1-acryloyl-4-(8-chloro-4-(3-(dimethylamino)azetidin-1-yl)-6-fluoro-7-(3-fluoro-2-methylphenyl)-1H-imidazo[4,5-c]quinolin-1-yl)piperidin-2-yl)acetonitrile]
≤ 100 nM | ≤ 100 nM | C=CC(=O)N1CC[C@H](n2cnc3c(N4CC(N(C)C)C4)nc4c(F)c(-c5cccc(C)c5Cl)c(Cl)cc4c32)C[C@H]1CC#N [Example 19, 2-((2S,4S)-1-acryloyl-4-(8-chloro-7-(2-chloro-3-methylphenyl)-4-(3-(dimethylamino)azetidin-1-yl)-6-fluoro-1H-imidazo[4,5-c]quinolin-1-yl)piperidin-2-yl)acetonitrile]
≤ 100 nM | ≤ 100 nM | C=CC(=O)N1CC[C@H](n2cnc3c(N4CC(N(C)C)C4)nc4c(F)c(-c5ccccc5C)c(Cl)cc4c32)C[C@H]1CC#N [Example 20, 2-((2S,4S)-1-acryloyl-4-(8-chloro-4-(3-(dimethylamino)azetidin-1-yl)-6-fluoro-7-(o-tolyl)-1H-imidazo[4,5-c]quinolin-1-yl)piperidin-2-yl)acetonitrile]
≤ 100 nM | ≤ 100 nM | C=CC(=O)N1CC[C@H](n2cnc3c(N4CC(N(C)C)C4)nc4c(F)c(-c5cc(O)cc6ccccc56)c(Cl)cc4c32)C[C@H]1C(N)=O [Example 21, (2S,4S)-1-acryloyl-4-(8-chloro-4-(3-(dimethylamino)azetidin-1-yl)-6-fluoro-7-(3-hydroxynaphthalen-1-yl)-1H-imidazo[4,5-c]quinolin-1-yl)piperidine-2-carboxamide]
≤ 100 nM | ≤ 100 nM | C=CC(=O)N1CC[C@H](n2cnc3c(N4CC(N(C)C)C4)nc4c(F)c(-c5cc(O)cc6ccccc56)c(Cl)cc4c32)C[C@H]1C#N [Example 22, (2S,4S)-1-acryloyl-4-(8-chloro-4-(3-(dimethylamino)azetidin-1-yl)-6-fluoro-7-(3-hydroxynaphthalen-1-yl)-1H-imidazo[4,5-c]quinolin-1-yl)piperidine-2-carbonitrile]
≤ 100 nM | 1000 to 5000 nM | C=CC(=O)N1CC(n2c(=O)[nH]c3c(=O)n(-c4c(C)ccnc4C(C)C)c4nc(-c5cc(O)cc6ccccc56)c(F)cc4c32)C1 [Example 26, 1-(1-acryloylazetidin-3-yl)-8-fluoro-7-(3-hydroxynaphthalen-1-yl)-5-(2-isopropyl-4-methylpyridin-3-yl)-3,5-dihydro-1H-imidazo[4,5-c][1,8]naphthyridine-2,4-dione]
100 to 1000 nM | 1000 to 5000 nM | C=CC(=O)N1CC(n2c(=O)n(C[C@@H]3CCCN3C)c3c(=O)n(-c4c(C)ccnc4C(C)C)c4nc(-c5cc(O)cc6ccccc56)c(F)cc4c32)C1 [Example 27, (S)-1-(1-acryloylazetidin-3-yl)-8-fluoro-7-(3-hydroxynaphthalen-1-yl)-5-(2-isopropyl-4-methylpyridin-3-yl)-3-((1-methylpyrrolidin-2-yl)methyl)-3,5-dihydro-1H-imidazo[4,5-c][1,8]naphthyridine-2,4-dione]
≤ 100 nM | ≤ 100 nM | C=CC(=O)N1C[C@H](n2cnc3c(N4CC(N(C)C)C4)nc4c(F)c(-c5cc(O)cc6ccccc56)c(Cl)cc4c32)C[C@@H]1CC#N [Example 32, 2-((2R,4R)-1-acryloyl-4-(8-chloro-4-(3-(dimethylamino)azetidin-1-yl)-6-fluoro-7-(3-hydroxynaphthalen-1-yl)-1H-imidazo[4,5-c]quinolin-1-yl)pyrrolidin-2-yl)acetonitrile]
≤ 100 nM | ≤ 100 nM | C=CC(=O)N1CC[C@H](n2cnc3c(N4CC(N(C)C)C4)nc4c(F)c(-c5ccccc5)c(Cl)cc4c32)C[C@H]1CC#N [Example 45, 2-((2S,4S)-1-acryloyl-4-(8-chloro-4-(3-(dimethylamino)azetidin-1-yl)-6-fluoro-7-phenyl-1H-imidazo[4,5-c]quinolin-1-yl)piperidin-2-yl)acetonitrile]
≤ 100 nM | ≤ 100 nM | C=CC(=O)N1CC[C@H](n2cnc3c(N4CC(N(C)C)C4)nc4c(F)c(-c5cccc6ccccc56)c(Cl)cc4c32)C[C@H]1CC#N [Example 46, 2-((2S,4S)-1-acryloyl-4-(8-chloro-4-(3-(dimethylamino)azetidin-1-yl)-6-fluoro-7-(naphthalen-1-yl)-1H-imidazo[4,5-c]quinolin-1-yl)piperidin-2-yl)acetonitrile]
≤ 100 nM | ≤ 100 nM | C=CC(=O)N1CC[C@H](n2cnc3c(N4CC(N(C)C)C4)nc4c(F)c(-c5cc(O)ccc5F)c(Cl)cc4c32)C[C@H]1CC#N [Example 55, 2-((2S,4S)-1-acryloyl-4-(8-chloro-4-(3-(dimethylamino)azetidin-1-yl)-6-fluoro-7-(2-fluoro-5-hydroxyphenyl)-1H-imidazo[4,5-c]quinolin-1-yl)piperidin-2-yl)acetonitrile]
≤ 100 nM | ≤ 100 nM | C=CC(=O)N1CC[C@H](n2cnc3c(N4CC(N(C)C)C4)nc4c(F)c(-c5ccccc5F)c(Cl)cc4c32)C[C@H]1CC#N [Example 56, 2-((2S,4S)-1-acryloyl-4-(8-chloro-4-(3-(dimethylamino)azetidin-1-yl)-6-fluoro-7-(2-fluorophenyl)-1H-imidazo[4,5-c]quinolin-1-yl)piperidin-2-yl)acetonitrile]
≤ 100 nM | ≤ 100 nM | C=CC(=O)N1CC[C@H](n2cnc3c(N4CC(N(C)C)C4)nc4c(F)c(-c5ccccc5Cl)c(Cl)cc4c32)C[C@H]1CC#N [Example 57, 2-((2S,4S)-1-acryloyl-4-(8-chloro-7-(2-chlorophenyl)-4-(3-(dimethylamino)-azetidin-1-yl)-6-fluoro-1H-imidazo[4,5-c]quinolin-1-yl)piperidin-2-yl)acetonitrile]
≤ 100 nM | ≤ 100 nM | C=CC(=O)N1CC[C@H](n2cnc3c(N4CC(N(C)C)C4)nc4c(F)c(-c5cccc(F)c5Cl)c(Cl)cc4c32)C[C@H]1CC#N [Example 58, 2-((2S,4S)-1-acryloyl-4-(8-chloro-7-(2-chloro-3-fluorophenyl)-4-(3-(dimethyl-amino)azetidin-1-yl)-6-fluoro-1H-imidazo[4,5-c]quinolin-1-yl)piperidin-2-yl)acetonitrile]
≤ 100 nM | ≤ 100 nM | C=CC(=O)N1CC[C@H](n2cnc3c(N4CC(N(C)C)C4)nc4c(F)c(-c5ccc(C)cc5C)c(Cl)cc4c32)C[C@H]1CC#N [Example 59, 2-((2S,4S)-1-acryloyl-4-(8-chloro-4-(3-(dimethylamino)azetidin-1-yl)-7-(2,4-dimethylphenyl)-6-fluoro-1H-imidazo[4,5-c]quinolin-1-yl)piperidin-2-yl)acetonitrile]
≤ 100 nM | ≤ 100 nM | C=CC(=O)N1CC[C@H](n2cnc3c(N4CC(N(C)C)C4)nc4c(F)c(-c5cc(C)ccc5C)c(Cl)cc4c32)C[C@H]1CC#N [Example 60, 2-((2S,4S)-1-acryloyl-4-(8-chloro-4-(3-(dimethylamino)azetidin-1-yl)-7-(2,5-dimethylphenyl)-6-fluoro-1H-imidazo[4,5-c]quinolin-1-yl)piperidin-2-yl)acetonitrile]
≤ 100 nM | ≤ 100 nM | C=CC(=O)N1CC[C@H](n2cnc3c(N4CC(N(C)C)C4)nc4c(F)c(-c5cccc(Cl)c5C)c(Cl)cc4c32)C[C@H]1CC#N [Example 61, 2-((2S,4S)-1-acryloyl-4-(8-chloro-7-(3-chloro-2-methylphenyl)-4-(3-(dimethyl-amino)azetidin-1-yl)-6-fluoro-1H-imidazo[4,5-c]quinolin-1-yl)piperidin-2-yl)acetonitrile]
≤ 100 nM | ≤ 100 nM | C=CC(=O)N1C[C@H](n2cnc3c(N4CC(N(C)C)C4)nc4c(F)c(-c5cccc(C)c5C)c(Cl)cc4c32)C[C@@H]1CC#N [Example 62, 2-((2R,4R)-1-acryloyl-4-(8-chloro-4-(3-(dimethylamino)azetidin-1-yl)-7-(2,3-dimethylphenyl)-6-fluoro-1H-imidazo[4,5-c]quinolin-1-yl)pyrrolidin-2-yl)acetonitrile]
≤ 100 nM | ≤ 100 nM | C=CC(=O)N1C[C@H](n2cnc3c(N4CC(N(C)C)C4)nc4c(F)c(-c5cccc6ccccc56)c(Cl)cc4c32)C[C@@H]1CC#N [Example 63, 2-((2R,4R)-1-acryloyl-4-(8-chloro-4-(3-(dimethylamino)azetidin-1-yl)-6-fluoro-7-(naphthalen-1-yl)-1H-imidazo[4,5-c]quinolin-1-yl)pyrrolidin-2-yl)acetonitrile]
